# From patent US7541020B2, “Aminoalkyl glucosaminide phosphate compounds and their use as adjuvants and immunoeffectors” (priority 1997, dated 2009)
# Several values for one entry are separate records, joined by “and”; a condition that tells them apart may be missing. Equal entries are not always repeated. Where two headings read alike, the source gives them in different places.
# What was measured:
# influenza A/HK/68 [1] = tested on: influenza A/HK/68; design: species or system ICR mice; conditions: mouse, in vivo
# [2] = Fever response in rabbits (pyrogenicity); assay type: in vivo; conditions: 10 ug/kg; cumulative rise ≥1.5 degree in three rabbits is considered pyrogenic
# Description: The AGP compounds were also evaluated for their tendency to induce a fever response in rabbits. Each compound was formulated in 10% (v/v) ethanol/water solution at 100 mg/ml, then diluted with D5W to the desired concentration. The material was injected at 3 ml/kg body weight into 3 rabbits. The rise in core temperature of the rabbits was recorded.
# influenza A/HK/68 [3] = assay type: in vivo, ICR mice; conditions: mouse, in vivo
# influenza A/HK/68 [4] = tested on: influenza A/HK/68; design: species or system ICR mice; conditions: mouse, in vivo; remark: listed apart in the source
# E.G7 (OVA) cells = conditions: s.c. 25 μg OVA in AGP preparation, spleen cells 21 days later
# influenza A/HK/68 [5] = test: Second intranasal influenza vaccine experiment with aqueous AGP and MPL formulations: vaginal, tracheal wash and serum titers, protection; assay type: in vivo, BABL/c mice
# influenza A/HK/68 [6] = assay type: in vivo, BALB/c mice; conditions: mouse, in vivo
# TNF-α = test: Cytokine induction in human whole blood ex vivo culture: TNF-α (ELISA); assay type: cell-based; conditions: 4 hr
# Summary of the method: (§1)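 Compounds in 10% EtOH-water added at 1:10 to human whole blood, 4 hr at 37° C with rotation; RPMI-treated controls. After PBS dilution and centrifugation, supernatant TNF-α and IL-1β measured by ELISA.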
# IL-1β = test: Cytokine induction in human whole blood ex vivo culture: IL-1β (ELISA); assay type: cell-based; conditions: 4 hr
# Summary of the method: as §1
# [7] = tested on: hepatitis B surface antigen (HBsAg); test: Serum anti-HBsAg antibody titers after intranasal HBsAg + AGP-AF (ELISA); assay type: in vivo, BALB/c mice; conditions: for Anti HBsAg Titer^−1 IgG1 / Anti HBsAg Titer^−1 IgG2a: K = 10^3
# [8] = tested on: hepatitis B surface antigen (HBsAg); test: Anti-HBsAg antibody titer with AGP-SE (ELISA plates coated with HBsAg or p72 peptide); conditions: sera day 28 post 2°, 25 μg AGP-SE
# influenza A/HK/68 [9] = conditions: mouse, in vivo
# tetanus toxoid [10] = conditions: mouse, in vivo
# [11] = tested on: hepatitis B surface antigen (HBsAg); test: Vaginal wash anti-HBsAg antibody after intranasal HBsAg + AGP-AF; assay type: in vivo, BALB/c mice; conditions: 10 days after the booster immunization; intranasal HBsAg + 10 μg AGP-AF
# From the text: Vaginal samples were collected 10 days after the booster immunization and assayed for anti-HBsAg antibody.
# tetanus toxoid [12] = conditions: mouse, in vivo, sc
# [13] = day 22 post 2°, HBsAg + 10 μg AGP-AF intranasally
# [14] = serum, day 21 post 3°, intranasal HBsAg + 10 μg AGP-AF
# [15] = ELISA plates coated with p72 peptide
substance,measurement,setting,value
3-Hydroxy-(S)-2-[(R)-3-nonanoyloxytetradecanoylamino]propyl 2-Deoxy-4-O-phosphono-2-[(R)-3-nonanoyloxytetradecanoylamino]-3-O-[(R)-3-nonanoyloxytetradecanoyl]-β-D-glucopyranoside Triethylammonium Salt [B7],IgG Titer-1 post 1°,influenza A/HK/68 [1],3200
same,IgG Titer-1 post 2°,influenza A/HK/68 [1],">102,400"
same,Percent Survival post 1°,influenza A/HK/68 [1],60%
same,Percent Survival post 2°,influenza A/HK/68 [1],60%
same,"PYROGENICITY Total Rise ° C., 3 rabbits",[2],4 °C
same,Titer−1 IgG1,influenza A/HK/68 [3],3200
same,Titer−1 IgG2a,influenza A/HK/68 [3],100
same,Titer−1 IgG2b,influenza A/HK/68 [3],1600
same,Titer−1 Total IgG,influenza A/HK/68 [3],3200
same,Anti-influenza Titer^−1 Total IgG,influenza A/HK/68 [4],200
same,% Cytotoxicity,E.G7 (OVA) cells; E:T 12.5:1,29%
same,% Cytotoxicity,E.G7 (OVA) cells; E:T 25:1,44%
same,% Cytotoxicity,E.G7 (OVA) cells; E:T 50:1,57%
"3-O-deacylated monophosphoryl lipid A [MPL®, reference compound]",mucosal adjuvant activity (in words),"influenza A/HK/68 [5]; administered intranasally with influenza vaccine, vaginal and tracheal washes",act as mucosal adjuvants causing the production of IgA at two mucosal sites
4-Hydroxy-(S)-2-[(R)-3-decanoyloxytetradecanoyl]butyl 2-Deoxy-4-O-phosphono-2-[(R)-3-decanoyloxytetradecanoylamino]-3-O-[(R)-3-decanoyltetradecanoyl]-β-D-glucopyranoside Triethylammonium Salt [B10],IgG Titer-1 post 1°,influenza A/HK/68 [1],1600
same,IgG Titer-1 post 2°,influenza A/HK/68 [1],"25,600"
same,Percent Survival post 1°,influenza A/HK/68 [1],60%
same,Percent Survival post 2°,influenza A/HK/68 [1],90%
same,Anti-influenza Titer^−1 IgG1,influenza A/HK/68 [6],400
same,Anti-influenza Titer^−1 IgG2a,influenza A/HK/68 [6],400
same,Anti-influenza Titer^−1 IgG2b,influenza A/HK/68 [6],400
same,Anti-influenza Titer^−1 Total IgG,influenza A/HK/68 [6],400
same,Percent Survival,influenza A/HK/68 [6],62.5%
same,"PYROGENICITY Total Rise ° C., 3 rabbits",[2],5.8 °C
same,Anti-influenza Titer^−1 Total IgG,influenza A/HK/68 [4],1600
same,Percent Survival,influenza A/HK/68 [4],40%
same,% Cytotoxicity,E.G7 (OVA) cells; E:T 12.5:1,38%
same,% Cytotoxicity,E.G7 (OVA) cells; E:T 25:1,56%
same,% Cytotoxicity,E.G7 (OVA) cells; E:T 50:1,65%
same,TNF-α,"TNF-α; Dosage 1000 ng/ml, Table 15",73 pg/mL
same,TNF-α,"TNF-α; Dosage 5000 ng/ml, Table 15",127 pg/mL
same,TNF-α,"TNF-α; Dosage 10,000 ng/ml, Table 15",207 pg/mL
same,IL-1β,"IL-1β; Dosage 1000 ng/ml, Table 15",17 pg/mL
same,IL-1β,"IL-1β; Dosage 5000 ng/ml, Table 15",61 pg/mL
same,IL-1β,"IL-1β; Dosage 10,000 ng/ml, Table 15",43 pg/mL
4-Hydroxy-(S)-3-[(R)-3-decanoyloxytetradecanoyl]butyl 2-Deoxy-4-O-phosphono-2-[(R)-3-decanoyloxytetradecanoylamino]-3-O-[(R)-3-decanoyltetradecanoyl]-β-D-glucopyranoside Triethylammonium Salt [B9],IgG Titer-1 post 1°,influenza A/HK/68 [1],6400
same,IgG Titer-1 post 2°,influenza A/HK/68 [1],"12,800"
same,Percent Survival post 1°,influenza A/HK/68 [1],80%
same,Percent Survival post 2°,influenza A/HK/68 [1],50%
same,Anti-influenza Titer^−1 IgG1,influenza A/HK/68 [6],1600
same,Anti-influenza Titer^−1 IgG2a,influenza A/HK/68 [6],3200
same,Anti-influenza Titer^−1 IgG2b,influenza A/HK/68 [6],800
same,Anti-influenza Titer^−1 Total IgG,influenza A/HK/68 [6],1600
same,Percent Survival,influenza A/HK/68 [6],87.5%
same,"PYROGENICITY Total Rise ° C., 3 rabbits",[2],3.1 °C
same,Anti-influenza Titer^−1 Total IgG,influenza A/HK/68 [4],6400
same,Percent Survival,influenza A/HK/68 [4],44%
same,% Cytotoxicity,E.G7 (OVA) cells; E:T 12.5:1,36%
same,% Cytotoxicity,E.G7 (OVA) cells; E:T 25:1,55%
same,% Cytotoxicity,E.G7 (OVA) cells; E:T 50:1,65%
same,TNF-α,"TNF-α; Dosage 1000 ng/ml, Table 15",145 pg/mL
same,TNF-α,"TNF-α; Dosage 5000 ng/ml, Table 15",247 pg/mL
same,TNF-α,"TNF-α; Dosage 10,000 ng/ml, Table 15",449 pg/mL
same,IL-1β,"IL-1β; Dosage 1000 ng/ml, Table 15",53 pg/mL
same,IL-1β,"IL-1β; Dosage 5000 ng/ml, Table 15",84 pg/mL
same,IL-1β,"IL-1β; Dosage 10,000 ng/ml, Table 15",96 pg/mL
4-[(R)-3-Tetradecanoyloxytetradecanoylamino]butyl 2-Deoxy-4-O-phosphono-3-O-[(R)-3-tetradecanoyoxytetradecanoyl]-2-[(R)-3-tetradecanoyloxytetradecanoylamino])-β-D-glucopyranoside Triethylammonium Salt [B22],Anti HBsAg Titer^−1 IgA,[7]; [13],"1,600"
same,Anti HBsAg Titer^−1 IgG1,[7]; [13],256K
same,Anti HBsAg Titer^−1 IgG2a,[7]; [13],64K
same,Anti HBsAg Titer^−1 IgG1,[7]; [14],500K
same,Anti HBsAg Titer^−1 IgG2a,[7]; [14],500K
same,Anti HBsAg Titer^−1 IgA,[7]; [14],"12,800"
same,Anti-HBsAg Titer^−1 HBsAg IgG1,[8]; ELISA plates coated with HBsAg,1024K
same,Anti-HBsAg Titer^−1 HBsAg IgG2a,[8]; ELISA plates coated with HBsAg,1024K
same,Anti-HBsAg Titer^−1 p72-Peptide IgG1,[8]; [15],128K
same,Anti-HBsAg Titer^−1 p72-Peptide IgG2a,[8]; [15],128K
same,Percent Survival,influenza A/HK/68 [9],40%
same,Titer−1 IgG1,influenza A/HK/68 [9],100
same,Titer−1 IgG2a,influenza A/HK/68 [9],3200
same,Titer−1 IgG2b,influenza A/HK/68 [9],200
same,Titer−1 Total IgG,influenza A/HK/68 [9],3200
same,Anti-Tetanus Toxoid Titer^−1 Fecal Extract IgG,tetanus toxoid [10],25 and 50
same,Anti-Tetanus Toxoid Titer^−1 Vaginal Wash IgG,tetanus toxoid [10],400 and 800
same,Vaginal Wash Anti-HBsAg Titer^−1 IgA,[11],800
same,Vaginal Wash Anti-HBsAg Titer^−1 IgG,[11],100
same,Anti-tetanus toxoid IgG1 T/C,tetanus toxoid [12],18.4
same,Anti-tetanus toxoid IgG1 Titer,tetanus toxoid [12],"27,400"
same,Anti-tetanus toxoid IgG2a T/C,tetanus toxoid [12],345.8
same,Anti-tetanus toxoid IgG2a Titer,tetanus toxoid [12],"5,187"
same,Anti-tetanus toxoid IgG2b T/C,tetanus toxoid [12],59.6
same,Anti-tetanus toxoid IgG2b Titer,tetanus toxoid [12],"3,160"
same,Anti-tetanus toxoid IgM T/C,tetanus toxoid [12],0.8
same,Anti-tetanus toxoid IgM Titer,tetanus toxoid [12],440
same,Anti-tetanus toxoid Total Ig T/C,tetanus toxoid [12],60.0
same,Anti-tetanus toxoid Total Ig Titer,tetanus toxoid [12],"19,050"
N-[(R)-3-Hexanoyloxytetradecanoyl]-O-[2-deoxy-4-O-phosphono-2-[(R)-3-hexanoyloxytetradecanoylamino]-3-O-[(R)-3-hexanoyloxytetradecanoyl]-α-D-glucopyranosyl]-L-serine Triethylammonium Salt [B34],Mucosal IgA Response TW,"influenza A/HK/68 [5]; mouse, in vivo",<4.6
same,Mucosal IgA Response VW,"influenza A/HK/68 [5]; mouse, in vivo",<4.6
same,Percent Protection,"influenza A/HK/68 [5]; mouse, in vivo",0%
same,Serum IgG Titers,"influenza A/HK/68 [5]; mouse, in vivo",8.4
same,"PYROGENICITY Total Rise ° C., 3 rabbits",[2],2.8 °C
N-[(R)-3-decanoyloxytetradecanoyl]-O-[2-deoxy-4-O-phosphono-2-[(R)-3-decanoyloxytetradecanoylamino]-3-O-[(R)-3-decanoyloxytetradecanoyl]-β-D-glucopyranosyl]-D-serine Triethylammonium Salt [B14],IgG Titer-1 post 1°,influenza A/HK/68 [1],800
same,IgG Titer-1 post 2°,influenza A/HK/68 [1],"51,200"
same,Percent Survival post 1°,influenza A/HK/68 [1],33%
same,Percent Survival post 2°,influenza A/HK/68 [1],70%
same,Anti-influenza Titer^−1 IgG1,influenza A/HK/68 [6],6400
same,Anti-influenza Titer^−1 IgG2a,influenza A/HK/68 [6],3200
same,Anti-influenza Titer^−1 IgG2b,influenza A/HK/68 [6],6400
same,Anti-influenza Titer^−1 Total IgG,influenza A/HK/68 [6],3200
same,Percent Survival,influenza A/HK/68 [6],87.5%
same,Percent Survival,influenza A/HK/68 [3],30%
same,Titer^−1 IgG1,influenza A/HK/68 [3],1600
same,Titer^−1 IgG2a,influenza A/HK/68 [3],100
same,Titer^−1 IgG2b,influenza A/HK/68 [3],400
same,Titer^−1 Total IgG,influenza A/HK/68 [3],800
same,Anti-influenza Titer^−1 Total IgG,influenza A/HK/68 [4],6400
same,Percent Survival,influenza A/HK/68 [4],44%
same,% Cytotoxicity,E.G7 (OVA) cells; E:T 12.5:1,25%
same,% Cytotoxicity,E.G7 (OVA) cells; E:T 25:1,36%
same,% Cytotoxicity,E.G7 (OVA) cells; E:T 50:1,45%
same,TNF-α,"TNF-α; Dosage 500 ng/ml, Table 17",49 pg/mL
same,TNF-α,"TNF-α; Dosage 1000 ng/ml, Table 16",56 pg/mL
same,TNF-α,"TNF-α; Dosage 1000 ng/ml, Table 17",51 pg/mL
same,TNF-α,"TNF-α; Dosage 5000 ng/ml, Table 16",120 pg/mL
same,TNF-α,"TNF-α; Dosage 5000 ng/ml, Table 17",87 pg/mL
same,TNF-α,"TNF-α; Dosage 10,000 ng/ml, Table 16",249 pg/mL
same,TNF-α,"TNF-α; Dosage 10,000 ng/ml, Table 17",114 pg/mL
same,IL-1β,"IL-1β; Dosage 500 ng/ml, Table 17",19.9 pg/mL
same,IL-1β,"IL-1β; Dosage 1000 ng/ml, Table 16",46 pg/mL
same,IL-1β,"IL-1β; Dosage 1000 ng/ml, Table 17",10.0 pg/mL
same,IL-1β,"IL-1β; Dosage 5000 ng/ml, Table 16",71 pg/mL
same,IL-1β,"IL-1β; Dosage 5000 ng/ml, Table 17",19.0 pg/mL
same,IL-1β,"IL-1β; Dosage 10,000 ng/ml, Table 16",91 pg/mL
same,IL-1β,"IL-1β; Dosage 10,000 ng/ml, Table 17",24.6 pg/mL
